Patent US5804601A, “Aromatic hydroxamic acid compounds, their production and use” (Takeda Chemical Industries, Ltd., priority 1995, dated 1998)
pEC50, pIC50: −log10 of the molar value.

Legend:
[1] = test system: apomorphine-induced circling in rats pretreated with LPS infused into the unilateral striatum; experiment: Inhibitory effect on the apomorphine-induced circling in rats pretreated with LPS infused into the unilateral striatum; format: in vivo, rat; details: for Number of ipsilateral circlings (mean ± S.E.): 3 times, LPS 5 μg, apomorphine 1 mg/kg s.c., 30-minute period, n=4
Experimental: Inhibitory effect on the apomorphine-induced circling in rats pretreated with LPS infused into the unilateral striatum Male Wistar rats (8-9 weeks old) weighing 250-280 g at the operation for LPS infusion were submitted to the experiment. Throughout the experimental period, the animals were group-fed in a vivarium controlled at 24±1° C. and 55±1% R.H., with a light-dark cycle of 12 hr (7:00-19:00 ON) and free access to food (Clea Japan, Inc., CE-2 pellets) and water (tap water). Under pentobarbital (50 mg/kg, i.p.) anesthesia, the rat's head was immobilized in David Kopf's brain stereotaxic apparatus for small animal use and with reference to Pellegrino & Cushman's brain atlas, a 30 G stainless steel needle was indwelled in the unilateral striate body (A8.2, L2.8, H4.3). The infusion amount of LPS was set at 5 μg. LPS was dissolved in 1 μl of phosphate-buffered saline (PBS, pH 7.2) and the solution was infused gradually at a speed of 0.2 μl/min. The infusion needle was kept in position till 3 minutes following infusion and withdrawn only after sufficient diffusion of the drug solution had taken place. After 7-8 days postoperatively, 1 mg/kg of apomorphine was administered subcutaneously and the number of induced circling behavior during a 30-minute period immediately following administration were determined with an automatic counter. Compound A was suspended in 5% aqueous gum arabic solution and the suspension was administered either orally or intraperitoneally at a dose rate of 0.2 ml per 100 g rat body weight. This administration was carried out 3 times, namely 30 minutes before infusion of 5 μg LPS and 3 and 24 hours after the infusion. As a control, physiological saline solution alone was administered intraperitoneally.

[2] = test system: rat mixed cerebral cell culture; experiment: Neutralizing effect on LPS-induced cytotoxicity in a rat mixed cerebral cell culture system (LIC assay), MTT method; format: cell-based; details: concentration giving a recovery rate of 50%, usually 4-5 days incubation, read-out: ED50 (the source's name)
Experimental: Neutralizing effect on lipopolysaccharide (LPS)--induced cytotoxicity in a rat mixed cerebral cell culture system (LIC assay)
LPS, a substance known to activate glial cells (astrocytes, microglia), was added to a rat mixed cerebral cell culture system and the compounds which would neutralize the cytotoxicity induced by LPS were screened by the following method.
(1) Neonatal rat mixed cerebral cell culture
From neonatal Crj:CD (SD) rats (1-3 days old, Charles-River Japan, Ltd.), the brains were isolated and placed in ice-cold D-MEM/10% FCS (Dulbecco's cell culture minimal essential medium supplemented with 10% of fetal calf serum, 100 units/ml of penicillin and 100 μg/ml of streptomycin). Then, mixed cerebral cell cultures were carried out in the following steps.
1. The cerebrums were separated from the enucleated brains and the meninges was removed under the stereoscopic microscope.
2. The cerebrums were placed in a nylon-mesh (100-200 μm) bag to filter with the aid of a rubber policeman.
3. Using ice-cold D-MEM/10% FCS, the cells were washed 3 times (1000 rpm, 8 min.). Then, this cell suspension was filtered through a cell strainer (40 μm mesh, Falcon 2340) and the number of viable cells was counted by the trypan blue method.
4. The cells, were seeded in wells of a 96-well microtiter plate (Nunc) at a cell density of 1×10^5 cells/100 μl/well, and started a cell culture at 37° C.
5. One week later, 100 μl/well of D-MEM/10% FCS was added.
6. The plate was further incubated for about 1-2 weeks and the neutralizing activity of the test compound was evaluated by the following method.
(2) Evaluation of neutralizing activity in LPS-induced cytotoxicity
1. Following the rat mixed cerebral cell culture described in (1) (after 2-3 weeks of incubation), the medium was discarded from the respective wells of the 96-well microtiter plate, and 50 μl/well of fresh D-MEM/2% FCS was added.
2. A test sample and LPS (Difco, E. coli 011: B4, Bacto) of a suitable concentration, 25 μl each per well, were respectively added. D-MEM/2% FCS was used as the medium.
As the test sample, each of the compounds shown in Table 32 was dissolved in DMSO at a concentration of 10 ^-2 M and the solution was diluted with D-MEM/2% FCS and submitted for assay.
3. After a suitable period (usually 4-5 days) of incubation, the degree of cytotoxic effect was assessed by the microscopic observation, and MTT method.
(3) MTT [3-(4,5-dimethylthiazol-2-yl)-2,5-diphenyltetra zolium bromide] method
Ten μl of MTT solution (5 mg/ml, Sigma) dissolved in phosphate-buffered saline was added to each well. After 4-6 hours of incubation (37° C., under 10% CO2), 100 μl/well of 0.01N-hydrochloric acid containing 10% SDS was added, whereby the formed formazan was dissolved. After complete dissolution, the absorbance (540-590 nm) was measured for each well.
The ED50 values were determined by calculating the recovery rates by means of the following equation and plotting the concentrations of compounds giving a recovery rate of 50% on graph paper.
Recovery rate (%)=(C-B)×100/(A-B)
[A: the absorbance at 550 nm of the control well to which only the medium had been added
B: the absorbance at 550 nm of the well to which LPS had been added
C: the absorbance at 550 nm of the well to which both LPS and the test compound had been added]

TNFα = experiment: LPS-induced TNFα production in the rat mixed cerebral cell culture system (ELISA); format: cell-based; details: LPS 10 μg/ml, 24 hours
Experimental: Rat mixed cerebral cell cultures on day 15 after starting cell cultures were used. After removal of the medium, LPS (E. coli 011: B4, Bacto) (Difco Laboratories), 10 μg/ml, and Compound A, 10^-6 or 10^-7 M, were simultaneously added and the final volume was adjusted to 100 μl. After 24 hours of incubation at 37° C., the culture supernatant was collected as a sample for ELISA. The assay for determining TNFα amount was made using Mouse TNFα ELISA Kit (Genzyme) in accordance with its assay protocol.

[3] = test system: NO (nitric oxide) production; experiment: Inhibitory effect on LSP-induced NO (nitric oxide) production in a rat mixed cerebral cell culture system; format: cell-based; details: 120 h, LSP 5 μg/ml, 5 days, combined NO3^- and NO2^- in culture supernatant, read-out: inhibition concentration (IC50) against LSP-induced NO production
Experimental: Inhibitory effect on LSP-induced NO (nitric oxide) production in a rat mixed cerebral cell culture system
(1) Rat mixed cerebral cell culture
Rat mixed cerebral cell cultures were prepared by the procedure described in Experimental Example 1.
1. Twenty (20) days after initiation of rat mixed cerebral cell culture, the medium was removed from each well of the 96-well microtiter plate and, instead, 125 μl/well of D-MEM/2% FCS containing 5 μg/ml (final concentration) of LSP (Difco, E. coli 011: B4, Bacto) and a suitable dilution of the test compound was added. As the test sample, a stock DMSO solution of 10^-2 M concentration was prepared and diluted with D-MEM/2% FCS.
2. After a further 5 days of cell culture, the combined amount of NO3^- and NO2^- in the culture supernatant was determined with the NO3^- NO2^- Assay Kit (Cayman Chemical, Catalog No. 780001, U.S.A.). The assays were carried out in accordance with the accompanying protocol.
The IC50 values were determined from a plot of the concentrations of the test compound which caused a 50% decrease in the combined amount of […] and NO3^- in the culture supernatant as compared with the well to which LSP alone had been added in a final concentration of 5 μg/ml without addition of compound A.

With `COc1ccc(C(CCCCC(=O)NO)C2=C(C)C(=O)c3ccccc3C2=O)cc1` (stereo not shown) [Compound A, 6-(3-Methyl-1,4-naphthoquinon-2-yl)-6-(4-methoxyphenyl)hexanohydroxamic acid] the “Number of ipsilateral circlings (mean ± S.E.)” value ([1]; i.p. (3 mg/kg)) was 44 ± 15, the “Number of ipsilateral circlings (mean ± S.E.)” value ([1]; p.o. (30 mg/kg)) was 65 ± 21 and the “LPS-induced injury of the unilateral striatum (in words)” value ([1]; rat, in vivo) was “significantly attenuated”. It also gave a pEC50 [2] of 7.70, a TNFα (TNFα; Compound A 10^-6 M) of 230 pg/mL and a TNFα (TNFα; Compound A 10^-7 M) of 790 pg/mL. The pIC50 [3] was 7.10.
